In the NIST ThermoML archive (doi:10.1016/j.jct.2016.10.009):

Assay: xn = mol fraction of the nth substance listed
Details: Liquid, Vibrating tube method

CC(C)OC(C)C [diisopropyl ether] + CCC(C)O
mass density [kg/m3]
Details | x2 = 0 | x2 = 0.2036 | x2 = 0.3227 | x2 = 0.4464 | x2 = 0.4973 | x2 = 0.6595 | x2 = 0.8482
373.24 K, 20000 kPa | – | – | 693 | 701.7 | 705.7 | 719.1 | 736.5
373.24 K, 25000 kPa | 680.8 | 692.1 | 699.7 | 708.2 | 712 | 725.1 | 741.9
373.24 K, 30000 kPa | 687.6 | 698.6 | 706 | 714.3 | 718 | 730.6 | 747.1
373.24 K, 35000 kPa | 693.8 | 704.4 | 711.7 | 719.8 | 723.4 | 735.7 | 751.9
373.24 K, 40000 kPa | 699.6 | 710 | 717.1 | 725 | 728.5 | 740.7 | 756.3
373.24 K, 45000 kPa | 705 | 715.3 | 722.2 | 730 | 733.5 | 745.3 | 760.7
373.24 K, 50000 kPa | 710.1 | 720.1 | 726.9 | 734.6 | 738 | 749.6 | 764.7
373.24 K, 55000 kPa | 714.9 | 724.9 | 731.5 | 739 | 742.4 | 753.8 | 768.7
373.24 K, 60000 kPa | 719.5 | 729.2 | 735.8 | 743.2 | 746.5 | 757.8 | 772.4
373.24 K, 65000 kPa | 723.9 | 733.4 | 740 | 747.3 | 750.6 | 761.6 | 776
373.24 K, 70000 kPa | 728.1 | 737.4 | 743.9 | 751.1 | 754.3 | 765.2 | 779.5
373.24 K, 80000 kPa | 735.9 | 745.2 | 751.5 | 758.4 | 761.6 | 772.3 | 786.1
373.24 K, 90000 kPa | 743.2 | 752.3 | 758.4 | 765.2 | 768.4 | 778.8 | 792.3
373.24 K, 100000 kPa | 750 | 758.8 | 764.9 | 771.5 | 774.6 | 784.8 | 798.2
373.24 K, 110000 kPa | 756.3 | 765.1 | 771 | 777.6 | 780.6 | 790.6 | 803.6
373.24 K, 120000 kPa | 762.3 | 770.9 | 776.8 | 783.2 | 786.1 | 796 | 808.8
373.24 K, 130000 kPa | 768 | 776.5 | 782.3 | 788.7 | 791.5 | 801.3 | 813.9
373.24 K, 140000 kPa | 773.3 | 781.8 | 787.4 | 793.7 | 796.6 | 806.1 | 818.6
393.28 K, 1000 kPa | 609.5 | 623.6 | 633.2 | 644 | 648.8 | 665 | 686.4
393.28 K, 5000 kPa | 622.1 | 635 | 643.9 | 654 | 658.4 | 673.7 | 693.9
393.28 K, 10000 kPa | 635 | – | – | – | – | – | –
